From patent EP4678750A1 (priority 2023, dated 2024)

Columns and labels:
[1] = test system: replicon RNA transcribed from NOBEVR; assay: microbe, parasite or virus in culture; type: cell-based, Nobecovirus
[2] = test system: replicon RNA transcribed from HKU1; type: cell-based, Embecovirus
[3] = test system: replicon RNA transcribed from MERVR; type: cell-based, MERS-CoV
[4] = test system: replicon RNA transcribed from SCVR; type: cell-based, SARS-CoV-1
[5] = test system: replicon RNA transcribed from SC2R; type: cell-based, SARS-CoV-2
[6] = Evaluation of cytotoxicity (WST-1); settings: human, HuH-7.6c cells
[7] = test system: replicon RNA transcribed from SC2R; assay: microbe, parasite or virus in culture; type: cell-based, SARS-CoV-2; settings: Severe acute respiratory syndrome coronavirus 2, 48 h, read-out: EC50, inhibition of the replication of replicon RNA transcribed from SC2R
HCV replicon RNA = assay: HCV subgenomic replicon replication, Renilla luciferase activity; type: cell-based, genotype 1b HCV (1B-4 strain); settings: Hepatitis C virus; 72 hours, RL activity, FIG. 15B; read-out: EC50, inhibition of the replication of HCV replicon RNA

Structure (SMILES) | replication of replicon RNA in NOBEVR [1] | replication of replicon RNA in HKU1 [2] | replication of replicon RNA transcribed from NOBEVR [1] | replication of replicon RNA transcribed from MERVR [3] | replication of replicon RNA transcribed from HKU1 [2] | replication of replicon RNA transcribed from SCVR [4] | replication of replicon RNA transcribed from SC2R [5] | also measured
CC(C)(C)[C@H](NC(=O)C(F)(F)F)C(=O)N1C[C@H]2[C@@H]([C@H]1C(=O)N[C@H](C#N)C[C@@H]1CCNC1=O)C2(C)C [PF-07321332] | did not inhibit | did not inhibit |  |  |  |  |  | 
CN(C)CC[C@H](CSc1ccccc1)Nc1ccc(S(=O)(=O)NC(=O)c2ccc(N3CCN(Cc4ccccc4-c4ccc(Cl)cc4)CC3)cc2)cc1[N+](=O)[O-] [ABT-737] |  |  | inhibited | inhibited | inhibited | inhibited | inhibited | 
CC(C)=CCC[C@]1(C)C=Cc2c(O)c3c(c(CC=C(C)C)c2O1)O[C@]12C(=C[C@@H]4C[C@H]1C(C)(C)O[C@@]2(C/C=C(/C)C(=O)O)C4=O)C3=O [gambogic acid] |  |  |  |  |  |  | inhibited | 
CC1(C)CCC(c2ccc(Cl)cc2)=C(CN2CCN(c3ccc(C(=O)NS(=O)(=O)c4ccc(N[C@H](CCN5CCOCC5)CSc5ccccc5)c(S(=O)(=O)C(F)(F)F)c4)cc3)CC2)C1 [navitoclax] |  |  | inhibited | inhibited | inhibited | inhibited | inhibited | CC50 at 48 h [6]: 18600 nM; inhibitory activity against the replication of replicon RNA transcribed from NOBEVR [1]: inhibitory activity; EC50 ([1]; Nobecovirus, 48 h, read-out: EC50, inhibition of the replication of replicon RNA transcribed from NOBEVR): 280 nM
Cn1cnc(Cn2c(=O)[nH]/c(=N\c3cc4cn(C)nc4cc3Cl)n(Cc3cc(F)c(F)cc3F)c2=O)n1.O=C(O)/C=C/C(=O)O [ensitrevir fumarate] | did not inhibit | did not inhibit |  |  |  |  |  | 
NC(=O)c1nc(F)c[nH]c1=O [favipiravir] | did not inhibit | did not inhibit |  |  |  |  |  | 
COc1cc2c(cc1OC)[C@@H](Cc1ccc(Oc3cc(C[C@@H]4c5cc(OC)c(OC)cc5CCN4C)ccc3O)cc1)N(C)CC2 [dauricine] |  |  |  |  |  |  |  | inhibitory activity against the replication of replicon RNA transcribed from NOBEVR [1]: strong inhibitory activity; replicon RNA replication inhibitory activity against SC2R [5]: replicon RNA replication inhibitory activity
CC1(C)CCC(CN2CCN(c3ccc(C(=O)NS(=O)(=O)c4ccc(NCC5CCOCC5)c([N+](=O)[O-])c4)c(Oc4cnc5[nH]ccc5c4)c3)CC2)=C(c2ccc(Cl)cc2)C1 [venetoclax] |  |  |  |  |  |  | did not inhibit | 
Cc1c(-c2ccc(N3CCc4cccc(C(=O)Nc5nc6ccccc6s5)c4C3)nc2C(=O)O)cnn1CC12CC3CC(CC(C3)C1)C2 [A-1331852] |  |  | inhibited | inhibited | inhibited | inhibited | inhibited | EC50 [7]: 1.46 nM; EC50 (HCV replicon RNA): 14.8 nM
CCC(CC)COC(=O)[C@H](C)N[P@](=O)(OC[C@H]1O[C@@](C#N)(c2ccc3c(N)ncnn23)[C@H](O)[C@@H]1O)Oc1ccccc1 [remdesivir] | did not inhibit | did not inhibit |  |  |  |  |  | 
COc1cc2c(cc1O)[C@@H](Cc1ccc(O)c(Oc3ccc(C[C@@H]4c5cc(OC)c(OC)cc5CCN4C)cc3)c1)N(C)CC2 [daurisoline] |  |  |  |  |  |  |  | inhibitory activity against the replication of replicon RNA transcribed from NOBEVR [1]: strong inhibitory activity; replicon RNA replication inhibitory activity against SC2R [5]: replicon RNA replication inhibitory activity
CN(C)CC#Cc1ccc(OCCCc2sc(N3CCc4cccc(C(=O)Nc5nc6ccccc6s5)c4C3)nc2C(=O)O)c(F)c1 [A-1155463] |  |  | inhibited | inhibited | inhibited | inhibited | inhibited | concentration responsiveness of the replication level of SARS-CoV-2 replicon RNA [5]: inhibited the replication of replicon RNA transcribed from SC2R in a concentration-dependent manner
